Reference: the supplement of paper PMC10307832

What was measured:
Experiment in all cases: relative viability (nuclei count vs DMSO), 5 days (fraction); higher = more cells survive
Carfilzomib + Alpelisib = compound: CC(C)C[C@H](NC(=O)[C@H](CCc1ccccc1)NC(=O)CN1CCOCC1)C(=O)N[C@@H](Cc1ccccc1)C(=O)N[C@@H](CC(C)C)C(=O)[C@@]1(C)CO1 [Carfilzomib] + Cc1nc(NC(=O)N2CCC[C@H]2C(N)=O)sc1-c1ccnc(C(C)(C)C(F)(F)F)c1 [Alpelisib] (partner 2 µM)
Summary of the method: (§1)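 Lung cancer cell lines, seeded in 1536-well plates, were treated the following day by pin tool with a single drug or with five library-drug doses (not always all listed) in √10 steps on top of a fixed anchor-drug dose. Cells were fixed and nuclei stained in one step after 5 days, and nuclei were counted. Relative viability is the nuclei count for treated wells divided by that for vehicle wells, reported as medians of duplicate plates.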

Olaparib + Pemetrexed = compound: O=C(c1cc(Cc2n[nH]c(=O)c3ccccc23)ccc1F)N1CCN(C(=O)C2CC2)CC1 [Olaparib] + Nc1nc2[nH]cc(CCc3ccc(C(=O)N[C@@H](CCC(=O)O)C(=O)O)cc3)c2c(=O)[nH]1 [Pemetrexed] (partner 0.2 µM)
Summary of the method: as §1

Carfilzomib + Pemetrexed = compound: CC(C)C[C@H](NC(=O)[C@H](CCc1ccccc1)NC(=O)CN1CCOCC1)C(=O)N[C@@H](Cc1ccccc1)C(=O)N[C@@H](CC(C)C)C(=O)[C@@]1(C)CO1 [Carfilzomib] + Nc1nc2[nH]cc(CCc3ccc(C(=O)N[C@@H](CCC(=O)O)C(=O)O)cc3)c2c(=O)[nH]1 [Pemetrexed] (partner 0.2 µM)
Summary of the method: as §1

Carfilzomib + Luminespib = compound: CC(C)C[C@H](NC(=O)[C@H](CCc1ccccc1)NC(=O)CN1CCOCC1)C(=O)N[C@@H](Cc1ccccc1)C(=O)N[C@@H](CC(C)C)C(=O)[C@@]1(C)CO1 [Carfilzomib] + CCNC(=O)c1noc(-c2cc(C(C)C)c(O)cc2O)c1-c1ccc(CN2CCOCC2)cc1 [Luminespib] (partner 0.01 µM)
Summary of the method: as §1

## LXF-289
Carfilzomib + Alpelisib; first compound 0.001 µM
  relative viability: 1.06
Carfilzomib + Alpelisib; first compound 0.003162 µM
  relative viability: 1.07
Carfilzomib + Alpelisib; first compound 0.01 µM
  relative viability: 0.979
Carfilzomib + Alpelisib; first compound 0.03162 µM
  relative viability: 0.0883
Carfilzomib + Alpelisib; first compound 0.1 µM
  relative viability: 0.0581
Olaparib + Pemetrexed; first compound 0.08 µM
  relative viability: 1
Olaparib + Pemetrexed; first compound 0.253 µM
  relative viability: 0.883
Olaparib + Pemetrexed; first compound 2.53 µM
  relative viability: 0.963
Olaparib + Pemetrexed; first compound 8 µM
  relative viability: 1
Carfilzomib + Pemetrexed; first compound 0.001 µM
  relative viability: 0.947
Carfilzomib + Pemetrexed; first compound 0.003162 µM
  relative viability: 0.933
Carfilzomib + Pemetrexed; first compound 0.01 µM
  relative viability: 0.909
Carfilzomib + Pemetrexed; first compound 0.03162 µM
  relative viability: 0.108
Carfilzomib + Pemetrexed; first compound 0.1 µM
  relative viability: 0.125
Carfilzomib + Luminespib; first compound 0.001 µM
  relative viability: 0.654
Carfilzomib + Luminespib; first compound 0.003162 µM
  relative viability: 0.761
Carfilzomib + Luminespib; first compound 0.01 µM
  relative viability: 0.552
Carfilzomib + Luminespib; first compound 0.03162 µM
  relative viability: 0.515
Carfilzomib + Luminespib; first compound 0.1 µM
  relative viability: 0.0761

## NCI-H23
Carfilzomib + Alpelisib; first compound 0.001 µM
  relative viability: 0.741
Carfilzomib + Alpelisib; first compound 0.003162 µM
  relative viability: 0.84
Carfilzomib + Alpelisib; first compound 0.01 µM
  relative viability: 0.857
Carfilzomib + Alpelisib; first compound 0.03162 µM
  relative viability: 0.207
Carfilzomib + Alpelisib; first compound 0.1 µM
  relative viability: 0.112
Olaparib + Pemetrexed; first compound 0.08 µM
  relative viability: 0.756
Olaparib + Pemetrexed; first compound 0.253 µM
  relative viability: 0.614
Olaparib + Pemetrexed; first compound 2.53 µM
  relative viability: 0.654
Olaparib + Pemetrexed; first compound 8 µM
  relative viability: 0.473
Carfilzomib + Pemetrexed; first compound 0.001 µM
  relative viability: 0.532
Carfilzomib + Pemetrexed; first compound 0.003162 µM
  relative viability: 0.666
Carfilzomib + Pemetrexed; first compound 0.01 µM
  relative viability: 0.508
Carfilzomib + Pemetrexed; first compound 0.03162 µM
  relative viability: 0.165
Carfilzomib + Pemetrexed; first compound 0.1 µM
  relative viability: 0.169
Carfilzomib + Luminespib; first compound 0.001 µM
  relative viability: 0.211
Carfilzomib + Luminespib; first compound 0.003162 µM
  relative viability: 0.201
Carfilzomib + Luminespib; first compound 0.01 µM
  relative viability: 0.201
Carfilzomib + Luminespib; first compound 0.03162 µM
  relative viability: 0.188
Carfilzomib + Luminespib; first compound 0.1 µM
  relative viability: 0.184

## NCI-H322M
Carfilzomib + Alpelisib; first compound 0.001 µM
  relative viability: 0.796
Carfilzomib + Alpelisib; first compound 0.003162 µM
  relative viability: 0.757
Carfilzomib + Alpelisib; first compound 0.01 µM
  relative viability: 0.365
Carfilzomib + Alpelisib; first compound 0.03162 µM
  relative viability: 0.748
Carfilzomib + Alpelisib; first compound 0.1 µM
  relative viability: 0.509
Olaparib + Pemetrexed; first compound 0.08 µM
  relative viability: 0.607
Olaparib + Pemetrexed; first compound 0.253 µM
  relative viability: 0.608
Olaparib + Pemetrexed; first compound 2.53 µM
  relative viability: 0.619
Olaparib + Pemetrexed; first compound 8 µM
  relative viability: 0.544
Carfilzomib + Pemetrexed; first compound 0.001 µM
  relative viability: 0.592
Carfilzomib + Pemetrexed; first compound 0.003162 µM
  relative viability: 0.637
Carfilzomib + Pemetrexed; first compound 0.01 µM
  relative viability: 0.64
Carfilzomib + Pemetrexed; first compound 0.03162 µM
  relative viability: 0.657
Carfilzomib + Pemetrexed; first compound 0.1 µM
  relative viability: 0.421
Carfilzomib + Luminespib; first compound 0.001 µM
  relative viability: 0.719
Carfilzomib + Luminespib; first compound 0.003162 µM
  relative viability: 0.951
Carfilzomib + Luminespib; first compound 0.01 µM
  relative viability: 0.849
Carfilzomib + Luminespib; first compound 0.03162 µM
  relative viability: 0.713
Carfilzomib + Luminespib; first compound 0.1 µM
  relative viability: 0.291

## NCI-H522
Olaparib + Pemetrexed; first compound 0.08 µM
  relative viability: 1.05
Olaparib + Pemetrexed; first compound 0.253 µM
  relative viability: 0.931
Olaparib + Pemetrexed; first compound 2.53 µM
  relative viability: 0.833
Olaparib + Pemetrexed; first compound 8 µM
  relative viability: 1.04
Carfilzomib + Pemetrexed; first compound 0.001 µM
  relative viability: 1.19
Carfilzomib + Pemetrexed; first compound 0.003162 µM
  relative viability: 0.906
Carfilzomib + Pemetrexed; first compound 0.01 µM
  relative viability: 0.963
Carfilzomib + Pemetrexed; first compound 0.03162 µM
  relative viability: 0.717
Carfilzomib + Pemetrexed; first compound 0.1 µM
  relative viability: 0.339
Carfilzomib + Luminespib; first compound 0.001 µM
  relative viability: 1.09
Carfilzomib + Luminespib; first compound 0.003162 µM
  relative viability: 1.57
Carfilzomib + Luminespib; first compound 0.01 µM
  relative viability: 1.16
Carfilzomib + Luminespib; first compound 0.03162 µM
  relative viability: 1.26
Carfilzomib + Luminespib; first compound 0.1 µM
  relative viability: 0.367

## NCI-H727
Carfilzomib + Alpelisib; first compound 0.001 µM
  relative viability: 0.683
Carfilzomib + Alpelisib; first compound 0.003162 µM
  relative viability: 0.542
Carfilzomib + Alpelisib; first compound 0.01 µM
  relative viability: 0.655
Carfilzomib + Alpelisib; first compound 0.03162 µM
  relative viability: 0.421
Carfilzomib + Alpelisib; first compound 0.1 µM
  relative viability: 0.0733
Carfilzomib + Luminespib; first compound 0.001 µM
  relative viability: 0.32
Carfilzomib + Luminespib; first compound 0.003162 µM
  relative viability: 0.436
Carfilzomib + Luminespib; first compound 0.01 µM
  relative viability: 0.294
Carfilzomib + Luminespib; first compound 0.03162 µM
  relative viability: 0.498
Carfilzomib + Luminespib; first compound 0.1 µM
  relative viability: 0.201

## NCI-H1299
Carfilzomib + Alpelisib; first compound 0.001 µM
  relative viability: 1.1
Carfilzomib + Alpelisib; first compound 0.003162 µM
  relative viability: 1.01
Carfilzomib + Alpelisib; first compound 0.01 µM
  relative viability: 1.06
Carfilzomib + Alpelisib; first compound 0.03162 µM
  relative viability: 1.02
Carfilzomib + Alpelisib; first compound 0.1 µM
  relative viability: 0.257

## NCI-H1623
Carfilzomib + Luminespib; first compound 0.001 µM
  relative viability: 0.466
Carfilzomib + Luminespib; first compound 0.003162 µM
  relative viability: 0.527
Carfilzomib + Luminespib; first compound 0.01 µM
  relative viability: 0.563
Carfilzomib + Luminespib; first compound 0.03162 µM
  relative viability: 0.59
Carfilzomib + Luminespib; first compound 0.1 µM
  relative viability: 0.345

## NCI-H1648
Olaparib + Pemetrexed; first compound 0.08 µM
  relative viability: 0.967
Olaparib + Pemetrexed; first compound 0.253 µM
  relative viability: 0.708
Olaparib + Pemetrexed; first compound 8 µM
  relative viability: 0.735
Carfilzomib + Pemetrexed; first compound 0.001 µM
  relative viability: 0.717
Carfilzomib + Pemetrexed; first compound 0.003162 µM
  relative viability: 0.671
Carfilzomib + Pemetrexed; first compound 0.01 µM
  relative viability: 0.805
Carfilzomib + Pemetrexed; first compound 0.03162 µM
  relative viability: 0.416
Carfilzomib + Pemetrexed; first compound 0.1 µM
  relative viability: 0.263

## NCI-H1650
Olaparib + Pemetrexed; first compound 0.08 µM
  relative viability: 0.393
Olaparib + Pemetrexed; first compound 0.253 µM
  relative viability: 0.329
Olaparib + Pemetrexed; first compound 2.53 µM
  relative viability: 0.314
Olaparib + Pemetrexed; first compound 8 µM
  relative viability: 0.366
Carfilzomib + Pemetrexed; first compound 0.001 µM
  relative viability: 0.343
Carfilzomib + Pemetrexed; first compound 0.003162 µM
  relative viability: 0.403
Carfilzomib + Pemetrexed; first compound 0.01 µM
  relative viability: 0.312
Carfilzomib + Pemetrexed; first compound 0.03162 µM
  relative viability: 0.154
Carfilzomib + Pemetrexed; first compound 0.1 µM
  relative viability: 0.166
Carfilzomib + Luminespib; first compound 0.001 µM
  relative viability: 0.174
Carfilzomib + Luminespib; first compound 0.003162 µM
  relative viability: 0.199
Carfilzomib + Luminespib; first compound 0.01 µM
  relative viability: 0.213
Carfilzomib + Luminespib; first compound 0.03162 µM
  relative viability: 0.175
Carfilzomib + Luminespib; first compound 0.1 µM
  relative viability: 0.181

## NCI-H1703
Carfilzomib + Alpelisib; first compound 0.001 µM
  relative viability: 0.246
Carfilzomib + Alpelisib; first compound 0.003162 µM
  relative viability: 0.334
Carfilzomib + Alpelisib; first compound 0.01 µM
  relative viability: 0.126
Carfilzomib + Alpelisib; first compound 0.03162 µM
  relative viability: 0.112
Carfilzomib + Alpelisib; first compound 0.1 µM
  relative viability: 0.122

## NCI-H2342
Olaparib + Pemetrexed; first compound 0.08 µM
  relative viability: 0.806
Olaparib + Pemetrexed; first compound 0.253 µM
  relative viability: 0.751
Olaparib + Pemetrexed; first compound 2.53 µM
  relative viability: 0.753
Olaparib + Pemetrexed; first compound 8 µM
  relative viability: 0.761
Carfilzomib + Pemetrexed; first compound 0.001 µM
  relative viability: 0.732
Carfilzomib + Pemetrexed; first compound 0.003162 µM
  relative viability: 0.786
Carfilzomib + Pemetrexed; first compound 0.01 µM
  relative viability: 0.853
Carfilzomib + Pemetrexed; first compound 0.03162 µM
  relative viability: 0.78
Carfilzomib + Pemetrexed; first compound 0.1 µM
  relative viability: 0.449
Carfilzomib + Luminespib; first compound 0.001 µM
  relative viability: 0.69
Carfilzomib + Luminespib; first compound 0.003162 µM
  relative viability: 1.01
Carfilzomib + Luminespib; first compound 0.01 µM
  relative viability: 0.794
Carfilzomib + Luminespib; first compound 0.03162 µM
  relative viability: 0.798
Carfilzomib + Luminespib; first compound 0.1 µM
  relative viability: 0.581

## SW 900
Olaparib + Pemetrexed; first compound 0.08 µM
  relative viability: 0.502
Olaparib + Pemetrexed; first compound 0.253 µM
  relative viability: 0.461
Olaparib + Pemetrexed; first compound 2.53 µM
  relative viability: 0.456
Olaparib + Pemetrexed; first compound 8 µM
  relative viability: 0.457
Carfilzomib + Pemetrexed; first compound 0.003162 µM
  relative viability: 0.497
Carfilzomib + Pemetrexed; first compound 0.01 µM
  relative viability: 0.176
Carfilzomib + Pemetrexed; first compound 0.03162 µM
  relative viability: 0.152
Carfilzomib + Pemetrexed; first compound 0.1 µM
  relative viability: 0.216
Carfilzomib + Luminespib; first compound 0.001 µM
  relative viability: 0.164
Carfilzomib + Luminespib; first compound 0.003162 µM
  relative viability: 0.196
Carfilzomib + Luminespib; first compound 0.01 µM
  relative viability: 0.213
Carfilzomib + Luminespib; first compound 0.03162 µM
  relative viability: 0.172
Carfilzomib + Luminespib; first compound 0.1 µM
  relative viability: 0.149
